The values that follow are results of earlier work, collected in patent US20070141149A1, “Controlled-release pharmaceutical formulation” (priority 2003, published 2007).

Structures are written as SMILES. Like-named read-outs stand apart in the source and are kept apart here.

The conditions of the data set: orally administered.

The bioavailability is dose-corrected exposure relative to a reference, in per cent. `CCOc1ccccc1OCCN[C@H](C)Cc1ccc(OC)c(S(N)(=O)=O)c1` [tamsulosin]: the bioavailability by setting is: (on an empty stomach) around 100%; (taken during meals) “decreased”. The cmax result (taken during meals) is given as “decreased”.
